# ChEMBL document CHEMBL6134867, “Design and Synthesis of FR-β Targeting Chimeric Molecules for Reprogramming Tumor-Associated Macrophages Using 6-Substituted Pyrrolo[2,3-d]pyrimidines as Targeting Ligands” (J Med Chem, 2025)
# Calls of active or inactive are those of the source. The rule behind the calls is not given here.
# What was measured:
# [1] = system: BMDM; assay: Induction of macrophage repolarization in FR-beta expressing IL-4 differentiated M2 phenotype mouse BMDM cells assessed as reprogramming to M1 phenotype by measuring downregulation of CD206 mRNA expression at 10 nM incubated for 24 hrs by RT-qPCR analysis; format: functional, cell-based
# [2] = system: BMDM; assay: Induction of macrophage repolarization in FR-beta expressing IL-4 differentiated M2 phenotype mouse BMDM cells assessed as reprogramming to M1 phenotype by measuring upregulation of iNOS expression at 10 nM incubated for 24 hrs by western blot analysis; format: functional, cell-based
# [3] = system: BMDM; assay: Induction of macrophage repolarization in FR-beta expressing IL-4 differentiated M2 phenotype mouse BMDM cells assessed as reprogramming to M1 phenotype by measuring TNF-alpha mRNA expression at 10 nM incubated for 24 hrs by RT-qPCR analysis; format: functional, cell-based
# [4] = system: BMDM; assay: Induction of macrophage repolarization in FR-beta expressing IL-4 differentiated M2 phenotype mouse BMDM cells assessed as reprogramming to M1 phenotype by measuring downregulation of IL-10 mRNA expression at 10 nM incubated for 24 hrs by RT-qPCR analysis; format: functional, cell-based
# [5] = system: BMDM; assay: Induction of macrophage repolarization in FR-beta expressing IL-4 differentiated M2 phenotype mouse BMDM cells assessed as reprogramming to M1 phenotype by measuring downregulation of IL-10 level at 10 nM incubated for 24 hrs by ELISA; format: functional, cell-based
# [6] = system: BMDM; assay: Induction of macrophage repolarization in FR-beta expressing IL-4 differentiated M2 phenotype mouse BMDM cells assessed as reprogramming to M1 phenotype by measuring upregulation of IL-6 level at 10 nM incubated for 24 hrs by ELISA; format: functional, cell-based
# [7] = system: 4T1; assay: Antitumor activity against mouse 4T1 cells xenografted in BALB/c mouse assessed as lifespan of animal's survival at 0.333 mg/kg, iv qd for 14 days; format: functional; conditions: time 14 day
# [8] = system: BMDM; assay: Induction of macrophage repolarization in FR-beta expressing IL-4 differentiated M2 phenotype mouse BMDM cells assessed as reprogramming to M1 phenotype by measuring upregulation of iNOS mRNA expression at 10 nM incubated for 24 hrs by RT-qPCR analysis; format: functional, cell-based
# [9] = Toxicity against BALB/c mouse assessed as increase in TNF-alpha level in plasma at 20 ug, iv measured after 2 hrs by ELISA; format: organism-based; conditions: in vivo, dose 20 µg
# [10] = system: HUVEC; assay: Cytotoxicity against human HUVEC cells assessed as reduction in cell viability at >10 uM incubated for 24 hrs by CCK-8 assay; format: toxicity, cell-based
# [11] = system: Mus musculus; assay: In vivo repolarization of macrophages from M2 phenotype to M1 phenotype in BALB/c mouse xenografted with mouse 4T1 cells assessed as increase in M1 (F4/80+CD11b+CD86+) to M2 (F4/80+CD11b+CD206+) macrophage ratio in tumor at 0.333 mg/kg, iv qd for 14 days by flow cytometry; format: functional, organism-based; conditions: time 14.0 day
# [12] = Toxicity against BALB/c mouse assessed as increase in IL-6 level in plasma at 20 ug, iv measured after 2 hrs by ELISA; format: organism-based; conditions: in vivo, dose 20 µg
# [13] = Cytotoxicity against mouse BMDM cells assessed as reduction in cell viability at >10 uM incubated for 24 hrs by CCK-8 assay; format: toxicity, cell-based
# [14] = system: BMDM; assay: Induction of macrophage repolarization in FR-beta expressing IL-4 differentiated M2 phenotype mouse BMDM cells assessed as reprogramming to M1 phenotype by measuring upregulation of TLR7 expression at 10 nM incubated for 24 hrs by western blot analysis; format: functional, cell-based
# [15] = system: 4T1; assay: Antitumor activity against mouse 4T1 cells xenografted in BALB/c mouse assessed as inhibition of tumor growth at 0.333 mg/kg, iv qd for 14 days and measured every day by digital caliper analysis; format: functional, organism-based; conditions: time 14.0 day
# [16] = system: 4T1; assay: Cytotoxicity against mouse 4T1 cells assessed as reduction in cell viability at >10 uM incubated for 24 hrs by CCK-8 assay; format: toxicity, cell-based; conditions: 4t1, 24 h
# [17] = Toxicity against BALB/c mouse xenografted with mouse 4T1 cells assessed as heightened inflammatory response in lung at 0.333 mg/kg, iv qd for 14 days by Hematoxylin-Eosin staining based analysis; format: organism-based; conditions: in vivo, 336 h, time 14 day
# [18] = system: BMDM; assay: Induction of macrophage repolarization in FR-beta expressing IL-4 differentiated M2 phenotype mouse BMDM cells assessed as reprogramming to M1 phenotype by measuring TNF-alpha level at 10 nM incubated for 24 hrs by ELISA; format: functional, cell-based
# [19] = system: BMDM; assay: Induction of macrophage repolarization in FR-beta expressing IL-4 differentiated M2 phenotype mouse BMDM cells assessed as reprogramming to M1 phenotype by measuring upregulation of IL-6 mRNA expression at 10 nM incubated for 24 hrs by RT-qPCR analysis; format: functional, cell-based
# [20] = Toxicity against BALB/c mouse xenografted with mouse 4T1 cells assessed as decrease in body weight at 0.333 mg/kg, iv qd for 14 days and measured every day; format: organism-based; conditions: in vivo, 336 h, time 14 day
# [21] = system: BMDM; assay: Induction of macrophage repolarization in FR-beta expressing IL-4 differentiated M2 phenotype mouse BMDM cells assessed as reprogramming to M1 phenotype by measuring downregulation of Arg1 mRNA expression at 10 nM incubated for 24 hrs by RT-qPCR analysis; format: functional, cell-based
# [22] = system: BMDM; assay: Induction of macrophage repolarization in FR-beta expressing IL-4 differentiated M2 phenotype mouse BMDM cells assessed as reprogramming to M1 phenotype by measuring upregulation of MyD88 expression at 10 nM incubated for 24 hrs by western blot analysis; format: functional, cell-based
# [23] = system: BMDM; assay: Induction of macrophage repolarization in FR-beta expressing IL-4 differentiated M2 phenotype mouse BMDM cells assessed as reprogramming to M1 phenotype by measuring downregulation of CD206 expression at 10 nM incubated for 24 hrs by western blot analysis; format: functional, cell-based
# [24] = system: BMDM; assay: Induction of macrophage repolarization in FR-beta expressing IL-4 differentiated M2 phenotype mouse BMDM cells assessed as reprogramming to M1 phenotype by measuring upregulation of TLR7 mRNA expression at 10 nM incubated for 24 hrs by RT-qPCR analysis; format: functional, cell-based
# [25] = system: BMDM; assay: Induction of macrophage repolarization in FR-beta expressing IL-4 differentiated M2 phenotype mouse BMDM cells assessed as reprogramming to M1 phenotype by measuring downregulation of Arg1 expression at 10 nM incubated for 24 hrs by western blot analysis; format: functional, cell-based
# [26] = system: Mus musculus; assay: In vivo repolarization of macrophages from M2 phenotype to M1 phenotype in BALB/c mouse xenografted with mouse 4T1 cells assessed as increase in M1 (F4/80+CD11b+CD86+) to M2 (F4/80+CD11b+CD206+) macrophage ratio in tumor at 1 mg/kg, iv qd for 14 days by flow cytometry; format: functional, organism-based; conditions: time 14.0 day
# [27] = Toxicity against BALB/c mouse xenografted with mouse 4T1 cells assessed as pathological changes in heart at 1 mg/kg, iv qd for 14 days by Hematoxylin-Eosin staining based analysis; format: organism-based; conditions: in vivo, 336 h, time 14 day
# [28] = system: 4T1; assay: Antitumor activity against mouse 4T1 cells xenografted in BALB/c mouse assessed as lifespan of animal's survival at 1 mg/kg, iv qd for 14 days; format: functional; conditions: time 14 day
# [29] = Toxicity against BALB/c mouse xenografted with mouse 4T1 cells assessed as heightened inflammatory response in lung at 1 mg/kg, iv qd for 14 days by Hematoxylin-Eosin staining based analysis; format: organism-based; conditions: in vivo, 336 h, time 14 day
# [30] = Stability of the compound in mouse plasma at 5 uM and measured at 37 degC and for up to 12 hrs by HPLC analysis; format: ADME, cell-free; conditions: read-out: Stability
# [31] = Toxicity against BALB/c mouse xenografted with mouse 4T1 cells assessed as pathological changes in liver at 1 mg/kg, iv qd for 14 days by Hematoxylin-Eosin staining based analysis; format: organism-based; conditions: in vivo, 336 h, time 14 day
# [32] = Toxicity against BALB/c mouse xenografted with mouse 4T1 cells assessed as effect on body weight at 1 mg/kg, iv qd for 14 days and measured every day; format: organism-based; conditions: in vivo, 336 h, time 14 day
# [33] = system: HUVEC; assay: Cytotoxicity against human HUVEC cells assessed as reduction in cell viability incubated for 24 hrs by CCK-8 assay; format: toxicity, cell-based
# [34] = system: 4T1; assay: Antitumor activity against mouse 4T1 cells xenografted in BALB/c mouse assessed as inhibition of tumor growth at 1 mg/kg, iv qd for 14 days and measured every day by digital caliper analysis; format: functional, organism-based; conditions: time 14.0 day
# [35] = Stability of the compound in PBS measured at 4 degC and for 15 days; format: physicochemical; conditions: time 15 day, read-out: Stability
# [36] = system: Mus musculus; assay: In vivo transition from anti-inflammatory to pro-inflammatory phenotypes in BALB/c mouse xenografted with mouse 4T1 cells assessed as CD4+ cells population at 1 mg/kg, iv qd for 14 days by flow cytometry; format: functional, organism-based; conditions: time 14.0 day
# [37] = Cytotoxicity against mouse BMDM cells assessed as reduction in cell viability incubated for 24 hrs by CCK-8 assay; format: toxicity, cell-based
# [38] = Prodrug release assessed as IMDQ-SH formation in presence of 10 mM GSH and measured within 1 hr by HPLC analysis; format: ADME
# [39] = Toxicity against BALB/c mouse xenografted with mouse 4T1 cells assessed as pathological changes in kidney at 1 mg/kg, iv qd for 14 days by Hematoxylin-Eosin staining based analysis; format: organism-based; conditions: in vivo, 336 h, time 14 day
# [40] = Prodrug release assessed as IMDQ formation in presence of 10 mM GSH and measured after 1 to 8 hrs by HPLC analysis; format: ADME; conditions: time 1-8 hrs
# [41] = system: Mus musculus; assay: In vivo transition from anti-inflammatory to pro-inflammatory phenotypes in BALB/c mouse xenografted with mouse 4T1 cells assessed as upregulation in proportion of CD8+ cells at 1 mg/kg, iv qd for 14 days by flow cytometry; format: functional, organism-based; conditions: time 14.0 day
# [42] = Toxicity against BALB/c mouse xenografted with mouse 4T1 cells assessed as pathological changes in spleen at 1 mg/kg, iv qd for 14 days by Hematoxylin-Eosin staining based analysis; format: organism-based; conditions: in vivo, 336 h, time 14 day
# [43] = system: Mus musculus; assay: In vivo transition from anti-inflammatory to pro-inflammatory phenotypes in BALB/c mouse xenografted with mouse 4T1 cells assessed as decrease in proportion of Ly6C+ and Ly6G+ cells within CD45+ population at 1 mg/kg, iv qd for 14 days by flow cytometry; format: functional, organism-based; conditions: time 14.0 day
# [44] = system: 4T1; assay: Cytotoxicity against mouse 4T1 cells assessed as reduction in cell viability incubated for 24 hrs by CCK-8 assay; format: toxicity, cell-based; conditions: 4t1, 24 h
SMILES,Activity [1],Activity [2],Activity [3],Activity [4],Activity [5],Activity [6],Activity [8],Activity [9],Activity [12],Activity [14],Activity [18],Activity [19],Activity [21],Activity [22],Activity [23],Activity [24],Activity [25],further results
CCCCc1nc2c(N)nc3ccccc3c2n1Cc1ccc(CN)cc1,Active,Active,inactive,Active,Active,Active,Active,Toxic,Toxic,Active,inactive,Active,Active,Active,Active,Active,Active,Survival [7]: 27 days; Activity [10]: Toxic; Activity [11]: inactive; Activity [13]: Toxic; Activity [15]: Active; Diminished Antitumor Efficacy Compared To Fgt-1 To 4 Observed; Activity [16]: Toxic; Activity [17]: Toxic; Activity [20]: Toxic
CCCCc1nc2c(N)nc3ccccc3c2n1Cc1ccc(CNC(=O)OCCSSC[C@H](NC(=O)CC[C@H](NC(=O)c2ccc(CCCCc3cc4c(=O)[nH]c(N)nc4[nH]3)cc2)C(=O)O)C(=O)O)cc1,"Active; More Pronounced Effect Compared To Fgt-2,3 Observed","Active; More Pronounced Effect Compared To Fgt-2,3 Observed",inactive,Active; More Pronounced Effect Compared To Fgt-2 Observed,Active; More Pronounced Effect Compared To Fgt-2 Observed,Active; More Pronounced Effect Compared To Fgt-2 Observed,"Active; More Pronounced Effect Compared To Fgt-2,3 Observed",Non-toxic,Non-toxic,Active,inactive,Active; More Pronounced Effect Compared To Fgt-2 Observed,"Active; More Pronounced Effect Compared To Fgt-2,3 Observed",Active,"Active; More Pronounced Effect Compared To Fgt-2,3 Observed",Active,"Active; More Pronounced Effect Compared To Fgt-2,3 Observed","Activity [26]: Active; Activity [27]: Non-toxic; Survival [28]: 35 days; Activity [29]: Non-toxic; remaining at 12 h, 5 µM [30]: 95%; Activity [31]: Non-toxic; Activity [32]: Non-toxic; Activity [33]: Non-toxic; Activity [34]: Active; Most Pronounced Effect Compared To Fgt-1,2,3 Observed; remaining at 360 h [35]: > 95%; Activity [36]: inactive; Activity [37]: Non-toxic; Drug metabolism [38]: metabolite_detected; Activity [39]: Non-toxic; Drug metabolism [40]: metabolite_detected; Activity [41]: Active; Activity [42]: Non-toxic; Activity [43]: Active; Activity [44]: Non-toxic"
